Measurements published in patent publication US11254705B2, “Cyclic peptide analogs and conjugates thereof” (Sirenas LLC, priority 2016, dated 2022).

The compounds below were run on HCC1954 cells (assay: Inhibition of HCC1954 cell growth (method analogous to BT-474)). Details: Homo sapiens.
Format: cell-based
Method: BT-474 human mammary gland ductal carcinoma cells were seeded in a clear polystyrene 96-well microculture plate (Corning® Costar® 96-well flat bottom plate, Cat. #3997) in a total volume of 90 μL/well. After 24 hours of incubation in a humidified incubator at 37° C. with 5% CO2 and 95% air, 10 μL of 10×, serially diluted test agents in growth medium were added to each well (10 pt dose response curve, highest concentration 10 μM of test agent). After 72 hours of culture in a humidified incubator at 37° C., in an atmosphere of 5% CO2 and 95% air, the plated cells and Cell Titer-Glo® (Protnega G7571) reagents were brought to room temperature to equilibrate for 30 minutes. 100 μL of Cell Titer-Glo® reagent was added to each well. The plate was shaken for two minutes and then left to equilibrate for ten minutes. The media/Cell Titer-Glo® reagent was transferred to a white polystyrene 96-well microculture plate (Corning® Costar® 96-well flat bottom plate, Cat. #3917) before reading luminescence on a Tecan GENios microplate reader.
Percent inhibition of cell growth was calculated relative to untreated control wells. The IC50 value for the test agents was determined using Prism 6.05 by curve-fitting of the data using the following four parameter-logistic equation:
[formula] where Top is the maximal % of control absorbance, Bottom is the minimal % of control absorbance at the highest agent concentration, Y is the % of control absorbance, X is the agent concentration, IC50 is the concentration of agent that inhibits cell growth by 50% compared to the control cells, and n is the slope of the curve.
Inhibitory response of test compounds against HCC1954 cells was determined using a method analogous to that used for BT-474 cells.
In the case of `C/C=C(\C)[C@H]1OC(=O)C(C)(C)NC(=O)[C@H]([C@H](C)CC)NC(=O)CN(C)C(=O)[C@@H](Cc2ccc(C#N)cc2)N(C)C(=O)[C@H](C)NC(=O)[C@@H](CC(C)C)OC(=O)/C(C)=C/C[C@H](OC(=O)NCCCCCO)[C@@H]1C` [Compound 29, (2R,5S,8R,14S,20S,21S,22S,E)-20-((E)-but-2-en-2-yl)-14-((R)-sec-butyl)-8-(4-cyanobenzyl)-2-isobutyl-5,7,10,17,17,21,25-heptamethyl-3,6,9,12,15,18,26-heptaoxo-1,19-dioxa-4,7,10,13,16-pentaazacyclohexacos-24-en-22-yl (5-hydroxypentyl)carbamate], the IC50 is reported as 27.3 nM. In the case of `C/C=C(\C)[C@H]1OC(=O)[C@@H](C)NC(=O)[C@H]([C@H](C)CC)NC(=O)CN(C)C(=O)[C@@H](Cc2ccc(Cl)cc2)N(C)C(=O)[C@H](C)NC(=O)[C@@H](CC(C)C)OC(=O)/C(C)=C/C[C@H](OC(=O)NCCCCCO)[C@@H]1C` [Compound 16, (2R,5S,8R,14S,17R,20S,21S,22S,E)-20-((E)-but-2-en-2-yl)-14-((R)-sec-butyl)-8-(4-chlorobenzyl)-2-isobutyl-5,7,10,17,21,25-hexamethyl-3,6,9,12,15,18,26-heptaoxo-1,19-dioxa-4,7,10,13,16-pentaazacyclohexacos-24-en-22-yl (5-hydroxypentyl)carbamate], the IC50 is reported as 0.1 nM. For `C/C=C(\C)[C@H]1OC(=O)C(C)(C)NC(=O)[C@H]([C@H](C)CC)NC(=O)CN(C)C(=O)[C@@H](Cc2ccc(Cl)cc2)N(C)C(=O)[C@H](C)NC(=O)[C@@H](CC(C)C)OC(=O)/C(C)=C/C[C@H](OC(=O)N(C)CCCCCCNC)[C@@H]1C` [Compound 23, (2R,5S,8R,14S,20S,21S,22S,E)-20-((E)-but-2-en-2-yl)-14-((R)-sec-butyl)-8-(4-chlorobenzyl)-2-isobutyl-5,7,10,17,17,21,25-heptamethyl-3,6,9,12,15,18,26-heptaoxo-1,19-dioxa-4,7,10,13,16-pentaazacyclohexacos-24-en-22-yl methyl(6-(methylamino)hexyl)carbamate], the IC50 was 0.47 nM. `C/C=C(\C)[C@H]1OC(=O)[C@@H](C)NC(=O)[C@H]([C@H](C)CC)NC(=O)CN(C)C(=O)[C@@H](Cc2ccccc2)N(C)C(=O)[C@H](C)NC(=O)[C@@H](CC(C)C)OC(=O)/C(C)=C/C[C@H](OC(=O)NCc2ccc(CO)cc2)[C@@H]1C` [Compound 12, (2R,5S,8R,14S,17R,20S,21S,22S,E)-8-benzyl-20-((E)-but-2-en-2-yl)-14-((R)-sec-butyl)-2-isobutyl-5,7,10,17,21,25-hexamethyl-3,6,9,12,15,18,26-heptaoxo-1,19-dioxa-4,7,10,13,16-pentaazacyclohexacos-24-en-22-yl (4-(hydroxymethyl)benzyl)carbamate] was tested, and the IC50 was 3.29 nM. `C/C=C(\C)[C@H]1OC(=O)C(C)(C)NC(=O)[C@H]([C@H](C)CC)NC(=O)CN(C)C(=O)[C@@H](Cc2ccc(Cl)cc2)N(C)C(=O)[C@H](C)NC(=O)[C@@H](CC(C)C)OC(=O)/C(C)=C/C[C@H](OC(=O)N(C)CCCCCCN(C)C(C)=O)[C@@H]1C` [Compound 24, (2R,5S,8R,14S,20S,21S,22S,E)-20-((E)-but-2-en-2-yl)-14-((R)-sec-butyl)-8-(4-chlorobenzyl)-2-isobutyl-5,7,10,17,17,21,25-heptamethyl-3,6,9,12,15,18,26-heptaoxo-1,19-dioxa-4,7,10,13,16-pentaazacyclohexacos-24-en-22-yl methyl(6-(N-methylacetamido)hexyl)carbamate] showed an IC50 of 2.07 nM. Compound `C/C=C(\C)[C@H]1OC(=O)C(C)(C)NC(=O)[C@H](C(C)CC)NC(=O)CN(C)C(=O)[C@@H](Cc2ccc(Cl)cc2)N(C)C(=O)[C@H](C)NC(=O)[C@@H](CC(C)C)OC(=O)/C(C)=C/C[C@H](OC(=O)NCCCCCO)[C@@H]1C` (stereo partly drawn) [Compound 22, (2R,5S,8R,14S,20S,21S,22S,E)-20-((E)-but-2-en-2-yl)-14-((R)-sec-butyl)-8-(4-chlorobenzyl)-2-isobutyl-5,7,10,17,17,21,25-heptamethyl-3,6,9,12,15,18,26-heptaoxo-1,19-dioxa-4,7,10,13,16-pentaazacyclohexacos-24-en-22-yl(5-hydroxypentyl)carbamate] has an IC50 of 7.26 nM. `C/C=C(\C)[C@H]1OC(=O)[C@@H](C)NC(=O)[C@H]([C@H](C)CC)NC(=O)CN(C)C(=O)[C@@H](Cc2ccc(Cl)cc2)N(C)C(=O)[C@H](C)NC(=O)[C@@H](CC(C)C)OC(=O)/C(C)=C/C[C@H](OC(=O)N(C)CCCCCCCCCCCCNC)[C@@H]1C` [Compound 20, (2R,5S,8R,14S,17R,20S,21S,22S,E)-20-((E)-but-2-en-2-yl)-14-((R)-sec-butyl)-8-(4-chlorobenzyl)-2-isobutyl-5,7,10,17,21,25-hexamethyl-3,6,9,12,15,18,26-heptaoxo-1,19-dioxa-4,7,10,13,16-pentaazacyclohexacos-24-en-22-yl methyl(12-(methylamino)dodecyl)carbamate] gave an IC50 of 15.4 nM. Work on `C/C=C(\C)[C@H]1OC(=O)[C@@H](C)NC(=O)[C@H](C(C)CC)NC(=O)CN(C)C(=O)[C@@H](Cc2ccc(Cl)cc2)N(C)C(=O)[C@H](C)NC(=O)[C@@H](CC(C)C)OC(=O)/C(C)=C/C[C@H](OC(=O)N(C)CCCCCCNC)[C@@H]1C` (stereo partly drawn) [Compound 19, (2R,5S,8R,14S,17R,20S,21S,22S,E)-20-((E)-but-2-en-2-yl)-14-((R)-sec-butyl)-8-(4-chlorobenzyl)-2-isobutyl-5,7,10,17,21,25-hexamethyl-3,6,9,12,15,18,26-heptaoxo-1,19-dioxa-4,7,10,13,16-pentaazacyclohexacos-24-en-22-yl methyl (6-(methylamino)hexyl)carbamate] yielded an IC50 of 4.16 nM. For `C/C=C(\C)[C@H]1OC(=O)[C@@H](C)NC(=O)[C@H]([C@H](C)CC)NC(=O)CN(C)C(=O)[C@@H](Cc2ccccc2)N(C)C(=O)[C@H](C)NC(=O)[C@@H](CC(C)C)OC(=O)/C(C)=C/C[C@H](OC(=O)NCCCCCCCCCCCCO)[C@@H]1C` [Compound 13, (2R,5S,8R,14S,17R,20S,21S,22S,E)-8-benzyl-20-((E)-but-2-en-2-yl)-14-((R)-sec-butyl)-2-isobutyl-5,7,10,17,21,25-hexamethyl-3,6,9,12,15,18,26-heptaoxo-1,19-dioxa-4,7,10,13,16-pentaazacyclohexacos-24-en-22-yl (12-hydroxydodecyl)carbamate], the IC50 was 18.1 nM. For `C/C=C(\C)[C@H]1OC(=O)[C@@H](C)NC(=O)[C@H]([C@H](C)CC)NC(=O)CN(C)C(=O)[C@@H](Cc2ccc(Cl)cc2)N(C)C(=O)[C@H](C)NC(=O)[C@@H](CC(C)C)OC(=O)/C(C)=C/C[C@H](OC(=O)NCCOCCO)[C@@H]1C` [Compound 17, (2R,5S,8R,14S,17R,20S,21S,22S,E)-20-((E)-but-2-en-2-yl)-14-((R)-sec-butyl)-8-(4-chlorobenzyl)-2-isobutyl-5,7,10,17,21,25-hexamethyl-3,6,9,12,15,18,26-heptaoxo-1,19-dioxa-4,7,10,13,16-pentaazacyclohexacos-24-en-22-yl (2-(2-hydroxyethoxy)ethyl)carbamate], the IC50 was 4.15 nM. Work on `C/C=C(\C)[C@H]1OC(=O)C(C)(C)NC(=O)[C@H]([C@H](C)CC)NC(=O)CN(C)C(=O)[C@@H](Cc2ccc(Cl)cc2)N(C)C(=O)[C@H](C)NC(=O)[C@@H](CC(C)C)OC(=O)/C(C)=C/C[C@H](OC(=O)N2CCN(CCO)CC2)[C@@H]1C` [Compound 26, (2R,5S,8R,14S,20S,21S,22S,E)-20-((E)-but-2-en-2-yl)-14-((R)-sec-butyl)-8-(4-chlorobenzyl)-2-isobutyl-5,7,10,17,17,21,25-heptamethyl-3,6,9,12,15,18,26-heptaoxo-1,19-dioxa-4,7,10,13,16-pentaazacyclohexacos-24-en-22-yl 4-(2-hydroxyethyl)piperazine-1-carboxylate] yielded an IC50 of 1.36 nM. Compound `C/C=C(\C)[C@H]1OC(=O)[C@@H](C)NC(=O)[C@H]([C@H](C)CC)NC(=O)CN(C)C(=O)[C@@H](Cc2ccccc2)N(C)C(=O)[C@H](C)NC(=O)[C@@H](CC(C)C)OC(=O)/C(C)=C/C[C@H](OC(=O)NCCc2ccc(O)cc2)[C@@H]1C` [Compound 10, (2R,5S,8R,14S,17R,20S,21S,22S,E)-8-benzyl-20-((E)-but-2-en-2-yl)-14-((R)-sec-butyl)-2-isobutyl-5,7,10,17,21,25-hexamethyl-3,6,9,12,15,18,26-heptaoxo-1,19-dioxa-4,7,10,13,16-pentaazacyclohexacos-24-en-22-yl (4-hydroxyphenethyl)carbamate] has an IC50 of 1.36 nM. Work on `C/C=C(\C)[C@H]1OC(=O)[C@@H](C)NC(=O)[C@H]([C@H](C)CC)NC(=O)CN(C)C(=O)[C@@H](Cc2ccc(Cl)cc2)N(C)C(=O)[C@H](C)NC(=O)[C@@H](CC(C)C)OC(=O)/C(C)=C/C[C@H](OC(=O)NCCc2ccc(O)cc2)[C@@H]1C` [Compound 18, (2R,5S,8R,14S,17R,20S,21S,22S,E)-20-((E)-but-2-en-2-yl)-14-((R)-sec-butyl)-8-(4-chlorobenzyl)-2-isobutyl-5,7,10,17,21,25-hexamethyl-3,6,9,12,15,18,26-heptaoxo-1,19-dioxa-4,7,10,13,16-pentaazacyclohexacos-24-en-22-yl (4-hydroxyphenethyl)carbamate] yielded an IC50 of 2.37 nM.
